# Measured values published in US10821115B2, “Compounds that inhibit Mcl-1 protein” (priority 2017, dated 2020).
# Read-outs that look alike come from different tables or passages of the source.
# How the values were obtained:
# [1] = target: recombinant human Mcl-1 (residues 171-327) / Bim interaction (Homo sapiens (Human), UniProt Q07820); test: biochemical; assay type: binding; details: read-out: Mcl-1 HTRF IC50
# [2] = system: human multiple myeloma cell line, OPM-2; test: Cell viability assay (OPM-2 10 FBS), CellTiter-Glo; assay type: cell-based; details: Homo sapiens, OPM-2, 16 h, read-out: OPM-2 10% FBS IC50 IP, OPM-2 cells, 10% FBS, 16 h incubation
# In short: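 OPM-2 cells at 3000 cells/well in RPMI 1640 with 10% FBS were exposed to serially diluted compounds for 16 h at 37 °C, 5% CO2.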
# [3] = 0.1 nM Mcl-1(171-327), 0.05 nM biotin-Bim (51-76)
# [4] = TR-FRET, Mcl-1(171-327) / biotin-Bim (51-76)
# recombinant human Mcl-1 (residues 171-327) / Bim interaction, sequence (Q07820 171-327): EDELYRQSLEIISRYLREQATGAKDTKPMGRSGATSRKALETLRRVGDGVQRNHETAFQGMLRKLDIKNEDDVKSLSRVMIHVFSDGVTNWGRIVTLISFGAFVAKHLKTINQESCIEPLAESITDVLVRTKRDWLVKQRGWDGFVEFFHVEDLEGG
Structure (SMILES),"IC50 [1, 3] [nM]","IC50 [1, 4] [nM]",also measured
"CO[C@]1(CN2CC(N3CCOCC3)C2)/C=C/C[C@H](C)[C@@H](C)S(=O)(=O)NC(=O)c2ccc3c(c2)N(C[C@@H]2CC[C@H]21)C[C@@]1(CCCc2cc(Cl)ccc21)CO3 [Example 84, (1S,3′R,6′R,7′R,8′E,11′S,12′R)-6-chloro-7′-methoxy-11′,12′-dimethyl-7′-((3-(4-morpholinyl)-1-azetidinyl)methyl)-3,4-dihydro-2H,15′H-spiro[naphthalene-1,22′-[20]oxa[13]thia[1,14]diazatetracyclo [14.7.2.0~3,6~.0~19,24~]pentacosa[8,16,18,24]tetraen]-15′-one 13′,13′-dioxide]",0.106,–,IC50 [2]: 61 nM
"CCO[C@]1(CN2CCN(C(C)C)[C@H](C)C2)CCC[C@H](C)[C@@H](CCOC)S(=O)(=O)NC(=O)c2ccc3c(c2)N(C[C@@H]2CC[C@H]21)C[C@@]1(CCCc2cc(Cl)ccc21)CO3 [Example 519, (1S,3′R,6′R,7′R,11′S,12′R)-6-chloro-7′-ethoxy-12′-(2-methoxyethyl)-11′-methyl-7′-(((3R)-3-methyl-4-(2-propanyl)-1-piperazinyl)methyl)-3,4-dihydro-2H, 15′H-spiro[naphthalene-1,22′-[20]oxa[13]thia[1,14]diazatetracyclo[14.7.2.0-3,6˜.0˜19,24˜]pentacosa[16,18,24]trien]-15′-one 13′,13′-dioxide]",0.157,–,–
"C[C@@H]1[C@@H](C)C/C=C/[C@@](O)(C#CCCCN2CCOCC2)[C@@H]2CC[C@H]2CN2C[C@@]3(CCCc4cc(Cl)ccc43)COc3ccc(cc32)C(=O)NS1(=O)=O [Example 100493, (1S,3′R,6′R,7′S,8′E,11′S,12′R)-6-chloro-7′-hydroxy-11′,12′-dimethyl-7′-(5-(4-morpholinyl)-1-pentyn-1-yl)-3,4-dihydro-2H,15′H-spiro[naphthalene-1,22′-[20]oxa[13]thia[1,14]diazatetracyclo [14.7.2.0~3,6~.0~19,24~]pentacosa[8,16,18,24]tetraen]-15′-one 13′,13′-dioxide]",–,0.322,–
"C[C@H]1CC/C=C/[C@](C)(O)[C@@H]2CC[C@H]2CN2C[C@@]3(CCCc4cc(Cl)ccc43)COc3ccc(cc32)C(=O)NS1(=O)=O (single isomer, unassigned) [Example 100028]",–,1.26,–
C[C@@H]1[C@@H](C)C/C=C/[C@]2(CN3CCOC[C@@H]3CO2)[C@@H]2CC[C@H]2CN2C[C@@]3(CCCc4cc(Cl)ccc43)COc3ccc(cc32)C(=O)NS1(=O)=O [Example 131],0.249,–,–
C[C@@H]1[C@@H](C)C/C=C/[C@]2(CN(C)CCO2)[C@@H]2CC[C@H]2CN2C[C@@]3(CCCc4cc(Cl)ccc43)COc3ccc(cc32)C(=O)NS1(=O)=O [Example 130],0.92,–,–
"O=C1NS(=O)(=O)CCCCC[C@@](O)(CO)[C@@H]2CC[C@H]2CN2C[C@@]3(CCCc4cc(Cl)ccc43)COc3ccc1cc32 [Example 100022, (1S,3′R,6′R,7′S)-6-chloro-7′-hydroxy-7′-(hydroxymethyl)-3,4-dihydro-2H,15′H-spiro[naphthalene-1,22′-[20]oxa[13]thia[1,14]diazatetracyclo [14.7.2.0~3,6~.0~19,24~]pentacosa[16,18,24]trien]-15′-one 13′,13′-dioxide]",–,0.861,–
"CC[C@@H]1CC/C=C/[C@@](O)(CO)[C@@H]2CC[C@H]2CN2C[C@@]3(CCCc4cc(Cl)ccc43)COc3ccc(cc32)C(=O)NS1(=O)=O [Example 100034, (1S,3′R,6′R,7′S,8′E,12′R)-6-chloro-12′-ethyl-7′-hydroxy-7′-(hydroxymethyl)-3,4-dihydro-2H,15′H-spiro[naphthalene-1,22′-[20]oxa[13]thia[1,14]diazatetracyclo [14.7.2.0~3,6~.0~19,24~]pentacosa[8,16,18,24]tetraen]-15′-one 13′,13′-dioxide]",–,0.877,–
"CO[C@@]1(CCN(C)C2CCCC2)/C=C/C[C@H](C)[C@@H](C)S(=O)(=O)NC(=O)c2ccc3c(c2)N(C[C@@H]2CC[C@H]21)C[C@@]1(CCCc2cc(Cl)ccc21)CO3 [Example 100418, (1S,3′R,6′R,7′S,8′E,11′S,12′R)-6-chloro-7′-(2-(cyclopentyl(methyl)amino)ethyl)-7′-methoxy-11′,12′-dimethyl-3,4-dihydro-2H,15′H-spiro[naphthalene-1,22′-[20]oxa[13]thia[1,14]diazatetracyclo [14.7.2.0~3,6~.0~19,24~]pentacosa[8,16,18,24]tetraen]-15′-one 13′,13′-dioxide]",–,0.098,–
"C[C@]1(O)CCCCCS(=O)(=O)NC(=O)c2ccc3c(c2)N(C[C@@H]2CC[C@H]21)C[C@@]1(CCCc2cc(Cl)ccc21)CO3 [Example 100023, (1S,3′R,6′R,7′S)-6-chloro-7′-hydroxy-7′-methyl-3,4-dihydro-2H,15′H-spiro[naphthalene-1,22′-[20]oxa[13]thia[1,14]diazatetracyclo [14.7.2.0~3,6~.0~19,24~]pentacosa[16,18,24]trien]-15′-one 13′,13′-dioxide]",–,3.94,–
"C[C@@H]1CC[C@@H]2CC2[C@](C)(O)[C@@H]2CC[C@H]2CN2C[C@@]3(CCCc4cc(Cl)ccc43)COc3ccc(cc32)C(=O)NS1(=O)=O (stereo in doubt) [Example 100033, (1S,3′R,6′R,7′S,8′S,13′R)-6-chloro-7′-hydroxy-7′,13′-dimethyl-3,4-dihydro-2H,16′H-spiro[naphthalene-1,23′-[21]oxa[14]thia[1,15]diazapentacyclo [15.7.2.0~3,6~.0~8,10~.0~20,25~]hexacosa [17,19,25]trien]-16′-one 14′,14′-dioxide]",–,2.81,–
"CO[C@@]1(CO)/C=C/C[C@H](C)[C@@H](C)S(=O)(=O)NC(=O)c2ccc3c(c2)N(C[C@@H]2CC[C@H]21)C[C@@]1(CCCc2cc(Cl)ccc21)CO3 [Example 100001, (1 S,3′R,6′R,7′S, 8′E,11′S, 12′R)-6-chloro-7′-(hydroxymethyl)-7′-methoxy-11′,12′-dimethyl-3,4-dihydro-2H, 15′H-spiro[naphthalene-1,22′-[20]oxa[13]thia[1,14]diazatetracyclo[14.7.2.˜3,6˜.0˜19,24˜]pentacosa[8,16,18,24]tetraen]-15′-one 13′,13′-dioxide]",–,0.055,–
"CC#C[C@@]1(O)CCCCCS(=O)(=O)NC(=O)c2ccc3c(c2)N(C[C@@H]2CC[C@H]21)C[C@@]1(CCCc2cc(Cl)ccc21)CO3 [Example 100026, (1S,3′R,6′R,7′R)-6-chloro-7′-hydroxy-7′-(1-propyn-1-yl)-3,4-dihydro-2H,15′H-spiro[naphthalene-1,22′-[20]oxa[13]thia[1,14]diazatetracyclo [14.7.2.0~3,6~.0~19,24~]pentacosa[16,18,24]trien]-15′-one 13′,13′-dioxide]",–,2.15,–
"O=C1NS(=O)(=O)CCCCC[C@](O)(CO)[C@@H]2CC[C@H]2CN2C[C@@]3(CCCc4cc(Cl)ccc43)COc3ccc1cc32 [Example 100021, (1S,3′R,6′R,7′R)-6-chloro-7′-hydroxy-7′-(hydroxymethyl)-3,4-dihydro-2H,15′H-spiro[naphthalene-1,22′-[20]oxa[13]thia[1,14]diazatetracyclo [14.7.2.0~3,6~.0~19,24~]pentacosa[16,18,24]trien]-15′-one 13′,13′-dioxide]",–,1.05,–
"C[C@H]1CC/C=C/[C@@](C)(O)[C@@H]2CC[C@H]2CN2C[C@@]3(CCCc4cc(Cl)ccc43)COc3ccc(cc32)C(=O)NS1(=O)=O (single isomer, unassigned) [Example 100032]",–,0.442,–
"C[C@@H]1[C@@H](C)C/C=C/[C@@]2(CN3CCOC[C@H]3CO2)[C@@H]2CC[C@H]2CN2C[C@@]3(CCCc4cc(Cl)ccc43)COc3ccc(cc32)C(=O)NS1(=O)=O [Example 99, (1S,3′R,6′R,7′S,8′E,9a″S,11′S,12′R)-6-chloro-11′,12′-dimethyl-3,4,6″,7″,9″,9a″-hexahydro-1″H,2H,15′H-dispiro[naphthalene-1,22′-[20]oxa[13]thia[1,14]diazatetracyclo[14.7.2.0˜3,6˜.0˜19,24˜]pentacosa[8,16,18,24]tetraene-7′,3″-[1,4]oxazino[3,4-c][1,4]oxazin]-15′-one 13′,13′-dioxide]",0.243,–,–
"C[C@@H]1[C@@H](C)C/C=C/[C@@]2(CN(C)CCO2)[C@@H]2CC[C@H]2CN2C[C@@]3(CCCc4cc(Cl)ccc43)COc3ccc(cc32)C(=O)NS1(=O)=O [Example 124, (1S,3′R,6′R,7′S,8′E, 11′S,12′R)-6-chloro-4″,11′,12′-trimethyl-3,4-dihydro-2H,15′H-dispiro[naphthalene-1,22′-[20]oxa[13]thia[1,14]diazatetracyclo[14.7.2.0-3,6˜.0˜19,24˜]pentacosa[8,16,18,24]tetraene-7′,2″-[1,4]oxazinan]-15′-one 13′,13′-dioxide]",0.646,–,–
"C[C@H]1CC/C=C/[C@](C)(O)[C@@H]2CC[C@H]2CN2C[C@@]3(CCCc4cc(Cl)ccc43)COc3ccc(cc32)C(=O)NS1(=O)=O (single isomer, unassigned) [Example 100029]",–,8.73,–
"CCO[C@@]1(CN2CCN3CCOC[C@@H]3C2)/C=C/C[C@H](C)[C@@H](C)S(=O)(=O)NC(=O)c2ccc3c(c2)N(C[C@@H]2CC[C@H]21)C[C@@]1(CCCc2ccccc21)CO3 [Example 105, (1S,3′R,6′R,7′S,8′E,11′S,12′R)-7′-ethoxy-7′-((9aS)-hexahydropyrazino[2,1-c][1,4]oxazin-8(1H)-ylmethyl)-11′,12′-dimethyl-3,4-dihydro-2H, 15′H-spiro[naphthalene-1,22′-[20]oxa[13]thia[1,14]diazatetracyclo[14.7.2.0-3,6˜.0˜19,24˜]pentacosa[8,16,18,24]tetraen]-15′-one 13′,13′-dioxide]",0.423,–,–
"C[C@@H]1[C@@H](C)C/C=C/[C@@](O)(CS(=O)(=O)N(C)C)[C@@H]2CC[C@H]2CN2C[C@@]3(CCCc4cc(Cl)ccc43)COc3ccc(cc32)C(=O)NS1(=O)=O (single isomer, unassigned) [Example 100020]",–,–,IC50 [1]: 0.032 nM
